{"source": "patent US5342612A", "about": "“Compositions for the treatment of mammalian diseases” (priority 1991, dated 1994)", "molecules": {"B1": {"name": "r-BoIL-2: recombinant bovine interleukin-2, Immunex Corporation, Seattle, Wash. (protein, UniProt P05016 21-155, looked up)", "Interleukin-2": "APTSSSTGNTMKEVKSLLLDLQLLLEKVKNPENLKLSRMHTFDFYVPKVNATELKHLKCLLEELKLLEEVLNLAPSKNLNPREIKDSMDNIKRIVLELQGSETRFTCEYDDATVNAVEFLNKWITFCQSIYSTMT"}}, "key": {"[1]": {"system": "S. aureus mastitis (Newbould 305)", "test": "r-BoIL-2 formulated in poloxamer 407 NF as a therapeutic for S. aureus mastitis (Example 6)", "format": "in vivo, Holstein-Fresian dairy cattle", "protocol": "This experiment compares r-BoIL-2 formulated in poloxamer 407 NF, against CEFA-LAK® (cephapirin in a commercial formulation), Na cephapirin (in PBS) and r-BoIL-2 in combination with Na cephapirin (in PBS) as potential therapeutics for S. aureus mastitis. The study employs the following materials: recombinant bovine interleukin-2 (r-BOIL-2, Immunex Corporation, Seattle, Wash.); CEFA-LAK® (200 mg cephapirin as cephapirin sodium in a commercially packaged dose, Bristol-Meyers, Evansville, Ind.); 200 mg Na cephapirin dissolved in 10.0 mL sterile saline; PLURONIC® ACID F127 (poloxamer 407 NF, BASF Corporation, Parsippany, N.J.).\nThe treatment of Holstein-Fresian dairy cattle is run over three days. There are four treatment groups as follows:\nTreatment 1=2 infusions consisting of 200 mg cephapirin (as CEFA-LAK®),at 0 and 12 hours.\nTreatment 2=3 infusions consisting of 10 mg r-BoIL-2/poloxamer 407 NF at 0, 24 and 48 hours.\nTreatment 3=3 infusions consisting of 3.3 mg r-BoIL-2 in 10 mL PBS at 0, 24 and 48 hours, followed by 2 infusions of 200 mg Na cephapirin in 10 mL PBS at 0 and 12 hours.\nTreatment 4=2 infusions consisting of 200 mg Na cephapirin in 10 mL PBS at 0 and 12 hours.\nAll mammary glands to be infused have been infected with S. aureus (Newbould 305). Infusions are made into the teat cistern of a milked out mammary gland after the prescribed milking. […]"}, "S. aureus [2]": {"system": "S. aureus", "test": "Potentiation of bacteriostatic activity of lysostaphin by vehicles (checkered analysis)", "format": "cell-based, Staphylococcus aureus", "conditions": "for Vehicle Conc. w/Max. Potentiation (%): with r-lysostaphin; for Character of potentiation: in words (footnotes, text); for Potentiation Index Compared to Lysostaphin: M.I.C. of r-lysostaphin in saline / M.I.C. in formulation with the vehicle", "description": "In order to identify the nontoxic formulations for mammalian use, toxicity is employed as a method to eliminate direct bactericidal effects on the S. aureus, as well as potential toxic effects on the target animal. Compounds are formulated with r-lysostaphin at concentrations below toxic effects and compared to the bacteriostatic activity of r-lysostaphin in a saline formulation. Some compounds potentiate r-lysostaphin bacteriostatic activity by as much as 300-1000 fold.\nSeveral surfactants, detergents, oils, emollients and membrane solubilizers are chosen as representative of various classes of compounds which may affect protein activity. These vehicles are then evaluated for toxicity and potentiation of the bacteriostatic effects of r-lysostaphin on S. aureus according to the methods described in the foregoing examples. […] Secondly, the vehicles are subjected to the toxicity test on murine cells in vitro. Viable cells are evaluated by trypan blue exclusion and normalized to an untreated control. Thereafter, dairy cattle are infused through the teat canal with various concentrations of the vehicle to make a determination of the irritation potential after intramammary infusion as a measure of mammalian toxicity. Milk samples are collected after infusion of said vehicles and the somatic cell count is determined. The Stimulation Index equals the post-infusion SCC divided by the pre-infusion SCC. The vehicles showing minimal toxicity to S. aureus and mammalian cells in vitro and in vivo are subsequent candidates for evaluation in the in vivo potentiation trials.\nVarious vehicle combinations are tested in a standard checkered analysis which simultaneously varies the concentration of both parameters to examine the individual contribution of each. Vehicles are all compared to r-lysostaphin in a saline solution, i.e., the potentiation index. […] Glycerol and triacetin, while only potentiating the activity of r-lysostaphin 6-8 fold, is manifested by bactericidal effects (see above Table IV)."}, "[3]": {"system": "Staphylococcus aureus mastitis (Newbould 305)", "test": "Efficacy of lysostaphin formulated in vehicles as intramammary infusion against Staphylococcus aureus mastitis", "format": "in vivo, bovine (dairy cows)", "description": "This experiment examines the ability of various lysostaphin formulations to eliminate S. aureus infections in the bovine mammary gland and compares the formulations with the testing of lysostaphin in a peanut oil-gel matrix, similar to that used in the commercial product CEFA-LAK®, which is used to treat mastitis in lactating dairy cows.\nLysostaphin is formulated in three vehicles: 15% w/v poloxamer 407 NF, 50% w/v glycerol or 10% w/v triacetin. Lysostaphin is also formulated in a peanut oil-gel matrix. These formulations are infused into the bovine mammary gland and the ability of these combinations to exact a biological response, either by curing the infection or by clearing the mammary gland temporarily of S. aureus, are assessed.\nRecombinant lysostaphin is suspended in 10.0 mL of peanut oil vehicle or dissolved in 60.0 mL of appropriate sterile vehicle (sPBS) at a concentration of 10.0 mg/mL or 1.67 mg/mL, respectively. Each of 15% poloxamer 407 NF (PLURONIC® ACID F127, a polyoxyethylene-polyoxypropylene derivative, BASF Corporation, Parsippany, N.J.); 50% glycerol (Sigma Chemical Co., St. Louis, Mo.); and 10% triacetin (glyceryl triacetate, Sigma Chemical Co., St. Louis, Mo.) are prepared in sterile phosphate buffered saline.\nStaphylococcus aureus infections of the mammary gland provide an excellent model system for evaluating therapeutic efficacy of a variety of pharmaceutical and biological agents for many infectious diseases of mammals. Therefore, experimental infections are established with S. aureus (strain Newbould 305). All mammary glands to be inoculated are free of pathogens and have individual quarter somatic cell counts (SCC) less than 200,000 cells/mL of milk. Inoculum is prepared from a four-hour culture grown in trypticase soy broth and diluted. Inoculations are made by infusion of 1.0 mL diluted culture containing 90 colony forming units of S. aureus (Newbould 305) into the teat cistern of a milked-out mammary quarter. Quarters which fail to establish an infection after six days from initial inoculation are reinfected.\nPrepared in PBS is 50% glycerol and the solution is then sterile filtered (0.45μ). Poloxamer 407 NF is mixed overnight and prepared similarly. A 10% triacetin solution is prepared aseptically in sterile PBS. Appropriate amounts of lysostaphin is added so the final concentration is 1.67 mg/mL. All preparations are in a total volume of 60.0 mL and made the day of the infusion. All solutions are sterile filtered through a 0.45μ filter.\nDuration of treatment: 3 consecutive PM milkings\nQuarters are randomly assigned to one of six treatment groups. All quarters are infused with the appropriate vehicle (60.0 mL) with or without lysostaphin over three consecutive PM milkings. […]"}, "S. aureus [4]": {"system": "S. aureus", "test": "Potentiation of lysostaphin bactericidal activity (minimum bactericidal concentration assay, survival of S. aureus)", "format": "cell-based, Staphylococcus aureus", "conditions": "18 h", "protocol": "Preparation of 50% glycerol and 15% poloxamer 407 NF plus lysostaphin is as follows: The lysostaphin stock of 2.5 mg/mL is thawed and filtered through a 0.22μ filter. [formula]\nIn a similar fashion, triacetin solutions are also prepared.\nMueller-Hinton Broth containing lysostaphin is prepared as above. Penicillin in Mueller-Hinton Broth is prepared to serve as a control. Starting with a frozen 2.5 mg/mL stock solution the penicillin is diluted as follows: 400 μl of 2.5 mg/mL is placed in 600 μl of Mueller-Hinton Broth to yield a 1000 μg/mL solution. Added to 3744 μl of Mueller-Hinton Broth is 256 μl of the 1000 μg/mL solution to yield a 64 μg/mL solution.\nPlaced in sterile tubes are 2 mL of the vehicle and lysostaphin; Mueller-Hinton Broth plus lysostaphin; and Mueller-Hinton Broth plus penicillin. Serial two-fold dilutions are performed by hand using 1 mL of the appropriate vehicle as the diluent. Lysostaphin and penicillin dilutions range from 64 μg/mL to 0.25 μg/mL. All combinations are done in duplicate. The Staphylococcus aureus is grown for 5 hours in 5 mL of TSB and 0.1 mL is removed and placed in 9.9 mL of saline. Each tube is inoculated with 100 μl of the diluted culture. Plate counts are performed on the inoculum. All tubes are incubated for 18 hours at 37° C. with constant agitation. Following incubation, each dilution of lysostaphin in the vehicles or Mueller-Hinton Broth and penicillin in Mueller-Hinton Broth is diluted in phosphate buffered saline to 10^-2, 10^-4 and 10^-6.\nPlated on a TSA with 10% sheep blood is 100 μl of the undilute and of each dilution. The plates are inverted and incubated for 18 hours. Following incubation, the number of colonies on each plate is counted.\nThe vehicles which inhibit the growth or are moderately bactericidal to S. aureus by themselves are unable to be evaluated using the MIC procedure. For these vehicles a minimum bactericidal concentration assay (MBC) is performed. This assay in conjunction with the previous MIC data distinguish bacteriostatic effects versus bactericidal effects of the vehicles. Various formulations are mixed with lysostaphin at a final concentration of 32 μg/mL. Ten, serial two- or four-fold dilutions of the lysostaphin are performed in the vehicle and each tube inoculated with a 2-6 x's 106 S. aureus CFU's (bacterial colony-forming units). Samples are removed after 18 hours and plated on blood agar plates."}, "[5]": {"test": "Toxicosis following r-BoIL-2 and r-BoIL-1 formulated infusions", "format": "in vivo, dairy cattle", "conditions": "in words", "description": "Daily observations of dairy cattle are made for any signs of toxicosis following the beginning of treatment."}, "[6]": {"conditions": "lysostaphin (or penicillin) 1 μg/mL"}, "[7]": {"conditions": "lysostaphin (or penicillin) 4 μg/mL"}}, "data": [{"molecule": "CC(=O)OCC1=C(C(=O)O)N2C(=O)[C@@H](NC(=O)CSc3ccncc3)[C@H]2SC1", "note": "[Cephapirin]", "values": [{"measurement": "Response (%)", "setting": "[1]; CEFA-LAK 200 mg x2, r-BoIL-2/F127 10 mg x3, r-BoIL-2 3.3 mg x3 + cephapirin 200 mg x2, cephapirin 200 mg x2, quarters culture negative at first sampling", "value": 85, "unit": "%"}, {"measurement": "Cure (%)", "setting": "[1]; same doses, days eight to fifteen following final treatment", "value": 23.1, "unit": "%"}]}, {"molecule": "CCCCCCCCCC(=O)N(C)C[C@H](O)[C@@H](O)[C@H](O)[C@H](O)CO", "note": "[Decanoyl-n-methylglucamid]", "values": [{"measurement": "Vehicle Conc. w/Max. Potentiation (%)", "setting": "S. aureus [2]", "value": 0.078, "unit": "%"}]}, {"molecule": "CCCCCCCCCCCCO[C@@H]1O[C@H](CO)[C@@H](O[C@H]2O[C@H](CO)[C@@H](O)[C@H](O)[C@H]2O)[C@H](O)[C@H]1O", "note": "[Dodecyl B-D-maltosid]", "values": [{"measurement": "Vehicle Conc. w/Max. Potentiation (%)", "setting": "S. aureus [2]", "value": 0.0024, "unit": "%"}]}, {"molecule": "OCC(O)CO", "note": "[Glycerol]", "values": [{"measurement": "Character of potentiation", "setting": "S. aureus [2]", "value": "Potentiates the bactericidal activity of rlysostaphin"}, {"measurement": "Vehicle Conc. w/Max. Potentiation (%)", "setting": "S. aureus [2]", "value": 50.0, "unit": "%"}, {"measurement": "% Cures", "setting": "[3]; 100 mg lysostaphin infusions on three consecutive days", "value": 25, "unit": "%"}, {"measurement": "Effect on potentiating the in vivo efficacy of lysostaphin", "setting": "[3]; in words", "value": "Neither glycerol nor triacetin (both have a cure rate of 25%) has any significant effect"}]}, {"molecule": "CCCCCCCC(=O)N(C)C[C@H](O)[C@@H](O)[C@H](O)[C@H](O)CO", "note": "[Octanoyl-n-methylglucamid]", "values": [{"measurement": "Vehicle Conc. w/Max. Potentiation (%)", "setting": "S. aureus [2]", "value": 0.31, "unit": "%"}]}, {"molecule": "CC1(C)S[C@@H]2[C@H](NC(=O)Cc3ccccc3)C(=O)N2[C@H]1C(=O)O", "note": "[Penicillin, reference compound]", "values": [{"measurement": "Survival of S. aureus CFU (Log 10) in Vehicles", "setting": "S. aureus [4]; lysostaphin (or penicillin) 0.5 μg/mL", "value": "4.2 CFU (Log 10)"}, {"measurement": "Killing of S. aureus (footnote class)", "setting": "S. aureus [4]; [6]", "value": "^3 (Greater than 99.99% killing of S. aureus)"}, {"measurement": "Survival of S. aureus CFU (Log 10) in Vehicles", "setting": "S. aureus [4]; [6]", "value": "2.5 CFU (Log 10)"}, {"measurement": "Killing of S. aureus (footnote class)", "setting": "S. aureus [4]; [7]", "value": "^3 (Greater than 99.99% killing of S. aureus)"}, {"measurement": "Survival of S. aureus CFU (Log 10) in Vehicles", "setting": "S. aureus [4]; [7]", "value": "3.1 CFU (Log 10)"}, {"measurement": "Survival of S. aureus CFU (Log 10) in Vehicles", "setting": "S. aureus [4]; lysostaphin (or penicillin) 8 μg/mL", "value": "0 CFU (Log 10)"}, {"measurement": "Killing of S. aureus (footnote class)", "setting": "S. aureus [4]; penicillin 0.5 μg/mL", "value": "^3 (Greater than 99.99% killing of S. aureus)"}]}, {"molecule": "CC(O)CO", "note": "(stereo not drawn) [Propylene Glycol]", "values": [{"measurement": "Vehicle Conc. w/Max. Potentiation (%)", "setting": "S. aureus [2]", "value": 0.195, "unit": "%"}]}, {"molecule": "CCCCCCCCCCCCOC1O[C@H](CO)[C@@H](O)[C@H](O)[C@H]1O", "note": "(stereo partly drawn) [n-Dodecylglucosid]", "values": [{"measurement": "Potentiation Index Compared to Lysostaphin", "setting": "S. aureus [2]", "value": 1025.0}, {"measurement": "Character of potentiation", "setting": "S. aureus [2]", "value": "Potentiation is eliminated when diluted fourfold"}, {"measurement": "Vehicle Conc. w/Max. Potentiation (%)", "setting": "S. aureus [2]", "value": 0.078, "unit": "%"}]}, {"molecule": "CCCCCCCCOC1O[C@H](CO)[C@@H](O)[C@H](O)[C@H]1O", "note": "(stereo partly drawn) [n-Octylglucosid]", "values": [{"measurement": "Potentiation Index Compared to Lysostaphin", "setting": "S. aureus [2]", "value": 1.0}, {"measurement": "Vehicle Conc. w/Max. Potentiation (%)", "setting": "S. aureus [2]", "value": 0.039, "unit": "%"}]}, {"molecule": "B1", "values": [{"measurement": "Observable signs of toxicosis / adverse clinical signs", "setting": "[5]; compared with PBS carrier", "value": "A decrease of adverse clinical signs are observed"}, {"measurement": "Side effects compared with r-BoIL-2 in PBS", "setting": "[5]; in polyoxypropylene-polyoxyethylene block copolymer", "value": "substantially less detrimental to an animal than infusions of r-BoIL-2 in sterile phosphate buffered saline"}]}]}
